pEC50: −log10 of the molar value.
Legend:
[1] = biological target: T1, human GLP-1R (Homo sapiens, UniProt P43220, L260F); experiment: CHO GLP-1R Clone C6 - Assay 2 (HTRF cAMP agonist assay, low receptor density); assay type: cell-based; settings: CHO GLP-1R Clone C6 (low receptor density)
T1 construct: expressed in transfected cells
Description: GLP-1R-mediated agonist activity was determined with a cell-based functional assay utilizing an HTRF (Homogeneous Time-Resolved Fluorescence) cAMP detection kit (cAMP HI Range Assay Kit; Cis Bio cat #62AM6PEJ) that measures cAMP levels in the cell. The method is a competitive immunoassay between native cAMP produced by the cells and exogenous cAMP labeled with the dye d2. The tracer binding is visualized by a mAb anti-cAMP labeled with Cryptate. The specific signal (i.e. energy transfer) is inversely proportional to the concentration of cAMP in either a standard or an experimental sample.
The human GLP-1R coding sequence (NCBI Reference Sequence NP_002053.3, including naturally-occurring variant Leu260Phe) was subcloned into pcDNA5-FRT-TO and a clonal CHO cell line stably expressing a low receptor density was isolated using the Flp-In™ T-Rex™ System, as described by the manufacturer (ThermoFisher).
Cells were removed from cryopreservation, re-suspended in 40 mL of Dulbecco's Phosphate Buffered Saline (DPBS—Lonza Cat #17-512Q) and centrifuged at 800×g for 5 minutes at 22° C. The DPBS was aspirated, and the cell pellet was re-suspended in 10 mL of complete growth medium (DMEM:F12 1:1 Mixture with HEPES, L-Gln, 500 mL (DMEM/F12 Lonza Cat #12-719F), 10% heat inactivated fetal bovine serum (Gibco Cat #16140-071), 5 mL of 100× Pen-Strep (Gibco Cat #15140-122), 5 mL of 100× L-Glutamine (Gibco Cat #25030-081), 700 μg/mL Hygromycin (Invitrogen Cat #10687010) and 15 μg/mL Blasticidin (Gibco Cat #R21001). A 1 mL sample of the cell suspension in growth media was counted on a Becton Dickinson ViCell to determine cell viability and cell count per mL. The remaining cell suspension was then adjusted with growth media to deliver 1600 viable cells per well using a Matrix Combi Multidrop reagent dispenser, and the cells were dispensed into a white 384 well tissue culture treated assay plate (Corning 3570). The assay plate was then incubated for 48 hours at 37° C. in a humidified environment (95% O2, 5% CO2)
Varying concentrations of each compound to be tested (in DMSO) were diluted in assay buffer [HBSS with Calcium/Magnesium (Lonza/BioWhittaker cat #10-527F)/0.1% BSA (Sigma Aldrich cat #A7409-1L)/20 mM HEPES (Lonza/BioWhittaker cat #17-737E)] containing 100 μM 3-isobutyl-1-methylxanthin (IBMX; Sigma cat #15879). The final DMSO concentration in the compound/assay buffer mixture is 1%.
After 48 hours, the growth media was removed from the assay plate wells, and the cells were treated with 20 μL of the serially diluted compound in assay buffer for 30 minutes at 37° C. in a humidified environment (95% O2, 5% CO2). Following the 30 minute incubation, 10 μL of labeled d2 cAMP and 10 μL of anti-cAMP antibody (both diluted 1:20 in cell lysis buffer; as described in the manufacturer's assay protocol) were added to each well of the assay plate. The plates were then incubated at room temperature and after 60 minutes, changes in the HTRF signal were read with an Envision 2104 multi-label plate reader using excitation of 330 nm and emissions of 615 and 665 nm. Raw data were converted to nM cAMP by interpolation from a cAMP standard curve (as described in the manufacturer's assay protocol) and the percent effect was determined relative to a saturating concentration of the full agonist GLP-1 (1 μM) included on each plate. EC50 determinations were made from agonist dose response curves analyzed with a curve fitting program using a 4-parameter logistic dose response equation.

[2] = Metabolite profiling of pooled human plasma after repeat oral dosing of Compound 1 (HPLC/UV/MS)
Description: Plasma samples from nine human subjects following oral administration of 120 mg BID for 28 days in a clinical study were examined for metabolites.
Individual subject's plasma (from nine human subjects with 120 mg BID dose Day 28) were pooled in proportion to the time period represented by each to yield a pool for profiling that was representative of the AUC (0-12 hr) according to the method of Hamilton et al. [Hamilton R A, Garnett W R, Kline B J. Determination of a mean valproic acid serum level by assay of a single pooled sample. […] Pooled plasma time points were first prepared by aliquoting equal amounts (1.0 mL) of plasma from each subject prior to making a single Hamilton pool. Blank plasma pools were made by taking equal aliquots of predose samples. To a 2 mL aliquot of each pooled plasma sample was added 6 mL of acetonitrile and then mixed. Protein precipitated samples were centrifuged for 5 minutes at 2000×g and the supernatants were transferred to other clean 15 mL centrifuge tubes. Samples were dried using an evaporative centrifuge set to 37° C. Samples were reconstituted using 0.2 mL of 5:95 acetonitrile:water and analyzed by HPLC/UV/MS.
Reconstituted samples were analyzed by positive ion HPLC/UV/MS using a Thermo Orbitrap Elite mass spectrometer operating in positive ion electrospray mode. Xcalibur software version 3.0.63 was used to control the HPLC/UV/MS system. Full scan data were collected at 15,000 resolution. Data dependent product ion scans of the two most intense ions found in the full scan were obtained at 15,000 resolution. The dynamic exclusion function was used with a 10 second exclusion duration after 3 successive product ion scans with an early exclusion if the precursor ion fell below a signal to noise ratio of 20. The HPLC system consisted of an Accela quaternary solvent delivery pump, an Accela autoinjector, an Accela PDA Plus photodiode array detector (Thermo Electron Corporation). Chromatography was performed on a Phenomenex Kinetex column (2.1 mm×100 mm, 2.6 μm) at 45° C. using a HotSleeve column heater (Analytical Sales and Services). The mobile phase was composed of 0.1% formic acid in water (solvent A) and acetonitrile (solvent B). The solvent delivery gradient program was as follows:

[3] = biological target: human GLP-1R (Homo sapiens, UniProt P43220, G168S); experiment: CHO GLP-1R Clone H6 - Assay 1 (HTRF cAMP agonist assay); settings: read-out: Assay 1 Emax (%)
human GLP-1R (Homo sapiens, UniProt P43220, G168S), sequence (P43220 24-463 G168S): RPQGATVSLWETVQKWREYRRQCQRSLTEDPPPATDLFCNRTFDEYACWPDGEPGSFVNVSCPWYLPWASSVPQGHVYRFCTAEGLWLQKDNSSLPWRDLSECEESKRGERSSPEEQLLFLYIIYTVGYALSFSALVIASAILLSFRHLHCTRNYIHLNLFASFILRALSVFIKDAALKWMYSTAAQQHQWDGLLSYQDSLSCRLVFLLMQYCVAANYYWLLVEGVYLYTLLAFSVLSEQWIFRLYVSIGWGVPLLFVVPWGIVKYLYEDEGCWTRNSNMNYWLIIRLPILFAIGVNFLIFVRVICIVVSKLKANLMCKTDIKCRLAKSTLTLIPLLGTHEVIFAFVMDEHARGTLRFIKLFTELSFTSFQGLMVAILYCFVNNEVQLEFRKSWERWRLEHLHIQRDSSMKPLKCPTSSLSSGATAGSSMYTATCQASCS
Description: (§1) GLP-1R-mediated agonist activity was determined with a cell-based functional assay utilizing an HTRF (Homogeneous Time-Resolved Fluorescence) cAMP detection kit (cAMP HI Range Assay Kit; CisBio cat #62AM6PEJ) that measures cAMP levels in the cell. The method is a competitive immunoassay between native cAMP produced by the cells and exogenous cAMP labeled with the dye d2. The tracer binding is visualized by a mAb anti-cAMP labeled with Cryptate. The specific signal (i.e. energy transfer) is inversely proportional to the concentration of cAMP in either standard or experimental sample.
(§2) The human GLP-1R coding sequence (NCBI Reference Sequence NP_002053.3, including naturally-occurring variant Gly168Ser) was subcloned into pcDNA3 (Invitrogen) and a cell line stably expressing the receptor was isolated (designated Clone H6).
(§3) Cells were removed from cryopreservation, re-suspended in 40 mL of Dulbecco's Phosphate Buffered Saline (DPBS—Lonza Cat #17-512Q) and centrifuged at 800×g for 5 minutes at 22° C. The cell pellet was then re-suspended in 10 mL of growth medium [DMEM/F12 1:1 Mixture with HEPES, L-Gln, 500 mL (DMEM/F12 Lonza Cat #12-719F), 10% heat inactivated fetal bovine serum (Gibco Cat #16140-071), 5 mL of 100× Pen-Strep (Gibco Cat #15140-122), 5 mL of 100× L-Glutamine (Gibco Cat #25030-081) and 500 μg/mL Geneticin (G418) (Invitrogen #10131035)]. A 1 mL sample of the cell suspension in growth media was counted on a Becton Dickinson ViCell to determine cell viability and cell count per mL. The remaining cell suspension was then adjusted with growth media to deliver 2000 viable cells per well using a Matrix Combi Multidrop reagent dispenser, and the cells were dispensed into a white 384 well tissue culture treated assay plate (Corning 3570). The assay plate was then incubated for 48 hours at 37° C. in a humidified environment in 5% carbon dioxide.
(§4) Varying concentrations of each compound to be tested (in DMSO) were diluted in assay buffer (HBSS with Calcium/Magnesium (Lonza/BioWhittaker cat #10-527F)/0.1% BSA (Sigma Aldrich cat #A7409-1L)/20 mM HEPES (Lonza/BioWhittaker cat #17-737E) containing 100 μM 3-isobutyl-1-methylxanthin (IBMX; Sigma cat #15879). The final DMSO concentration is 1%.
(§5) After 48 hours, the growth media was removed from the assay plate wells, and the cells were treated with 20 μL of the serially diluted compound in assay buffer for 30 minutes at 37° C. in a humidified environment in 5% carbon dioxide. Following the 30 minute incubation, 10 μL of labeled d2 cAMP and 10 μL of anti-cAMP antibody (both diluted 1:20 in cell lysis buffer; as described in the manufacturer's assay protocol) were added to each well of the assay plate. The plates were then incubated at room temperature and after 60 minutes, changes in the HTRF signal were read with an Envision 2104 multi-label plate reader using excitation of 330 nm and emissions of 615 and 665 nm. Raw data were converted to nM cAMP by interpolation from a cAMP standard curve (as described in the manufacturer's assay protocol) and the percent effect was determined relative to a saturating concentration of the full agonist GLP-17-36 (1 μM) included on each plate. EC50 determinations were made from agonist dose-response curves analyzed with a curve fitting program using a 4-parameter logistic dose response equation.

[4] = biological target: human GLP-1R (Homo sapiens, UniProt P43220); experiment: as above
human GLP-1R (Homo sapiens, UniProt P43220), sequence (P43220 24-463 G168S): as above
Description: as §1, §2, §3, §4, §5

T1 sequence (P43220 24-463 L260F): as the sequence (P43220 24-463 G168S) above, with S145G, L237F counted along it

Structure (SMILES): N#Cc1ccc(COc2cccc(C3CCN(Cc4nc5ccc(C(=O)O[C@@H]6O[C@H](C(=O)O)[C@@H](O)[C@H](O)[C@H]6O)cc5n4C[C@@H]4CCO4)CC3)n2)c(F)c1 [Compound M1, (2S,3S,4S,5R,6S)-6-((2-((4-(6-((4-cyano-2-fluorobenzyl)oxy)pyridin-2-yl)piperidin-1-yl)methyl)-1-(((S)-oxetan-2-yl)methyl)-1H-benzo[d]imidazole-6-carbonyl)oxy)-3,4,5-trihydroxytetrahydro-2H-pyran-2-carboxylic acid]
- Emax ([1]; arithmetic mean, relative to 1 μM GLP-1): 98%
- pEC50 ([1]; geometric mean): 5.60
- observed as major or minor metabolite in human plasma ([2]; Compound 1 120 mg BID, Day 28): minor metabolite
- Plasma Extracts ([2]; Compound 1 120 mg oral BID, Day 28, HPLC/UV/MS): +
- Emax [3]: 114%
- pEC50 [4]: 6.89

— patent publication US12065434B2, “Metabolites of GLP1R agonists” (Pfizer Inc., priority 2020, dated 2024)
